Test results taken from patent US9433663B2, “Mobilization of hematopoietic stem cells” (Children's Hospital Medical Center, priority 2008, dated 2016).

Key:
[1] = molecular target: T1, Rac1 (Mus musculus, UniProt P63001); assay: Rho GTPase effector pull-down in murine LDBM cells, Rac1; assay type: cell-based; details: parallel pull-down assay
T1 construct: endogenous in cells; host or cells: murine LDBM cells
Protocol: (§1) To analyze the effects of CASIN on the formation of active GTP-bound Cdc42, RhoA, and Rac1, effector pulldown assays were carried out as described previously. Cdc42GAP^−/− MEF, LDBM, CD34^+ hCB cells were treated with CASIN at doses of 5-20 μM in parallel with vehicle control for 2 hrs after overnight starvation, and stimulated with cytokines subsequently. And then cells were lysed in a buffer containing 20 mM Tris-HCL (pH 7.6), 100 mM NaCl, 1% Triton X-100, 10 mM MgCl2, 2 mM NaF, and Protease inhibitor cocktail (Roche Diagnostics). Lysates were incubated with GST-P21-binding domain of PAK1 for RAC1-GTP and Cdc42-GTP, and GST-RBD domain of Rhotekin for RhoA-GTP respectively. Both bound- and unbound-form of Rho GTPases were probed by immunoblotting with antibodies specific for Rac1 (BD biosciences), Cdc42 (BD biosciences), and RhoA (cell signaling).

[2] = molecular target: T2, RhoA (Mus musculus, UniProt Q9QUI0); assay: Rho GTPase effector pull-down in murine LDBM cells, RhoA; assay type: cell-based; details: parallel pull-down assay
T2 construct: endogenous in cells; host or cells: murine LDBM cells
Protocol: as §1

[3] = system: 32D myeloid progenitors; assay: adhesion of 32D progenitors to fibronectin fragment CH296; assay type: cell-based, murine; details: gradient CASIN treatments
Text: To shed light on potential roles of CASIN in HSPC mobilization, the effects of CASIN on Cdc42-related cellular functions was studied, including adhesion, migration, and F-actin polymerization of progenitor cells in 32D myeloid progenitors. […] SDF-1α stimulation causes a reorganization of F-actin into a cortical ring around the cells. […] Thirdly, to gain further insight into cellular specificity and efficacy of CASIN, and also to rule out possible toxic effects by CASIN, Cdc42-involved BM progenitor cell functions were examined, including proliferation, adhesion, migration, and F-actin polymerization, in Cdc42^+/+ cells in parallel with Cdc42^−/− cells. In line with additional studies in a Cdc42 conditional knockout mouse model as described herein, Cdc42^−/− LDBM cells have increased CFU-forming progenitors compared to those of Cdc42^+/+.

[4] = system: N-RasMA93 cells; assay: F-actin reorganization of N-RasMA93 leukemia cells; assay type: cell-based, human; details: in vitro
Protocol: FIG. 5A. SDF-1α induced F-actin polymerization without or with gradient CASIN pre-treatments was determined by MFI using FACS analysis.
(§2) Like normal HSCs, their malignant counterpart, leukemia initiating cells (LICs) reside in their BM niches that provide the structural and physiological conditions supporting their survival and growth. LICs are resistant to traditional chemotherapy by interacting with their BM microenvironment, which are the culprits of leukemia relapses after a period of remission induced by chemotherapy. Detachment of LICs from their niche by CASIN would be a valuable supplementary therapy to the traditional cancer therapies (e.g., chemotherapies). First of all, in vitro effects of CASIN were examined in adhesion, migration, and F-actin polymerization of LICs, each of which is independently important for the retention of LICs in BM niches. Retroviral transduction of an MLL-AF9 fusion cDNA together with N-Ras oncogene into normal human CD34^+cord blood cells led to the establishment of cultures of N-Ras-MA93 cells that can initiate acute myeloid leukemia in NOG mice. […] To address it, a human AML model was set up by transplanting N-RasMA93 cells into NOG mice intravenously.

[5] = system: leukemia initiating cells (LICs); assay type: in vivo
Text: as §2
C57BL/6, NOD/SCID, NOD/SCID-SGM3 and NOD/SCIDγC−/− (NOG) were in house bred in the animal barrier facility of Cincinnati Children's Hospital Medical Center (CCHMC) and used at the age of 6-8 weeks old. Cultured N-RasMA93 cells were injected into NOD/SCIDγC−/− mice by tail vein. […]

[6] = system: LT-HSC, ST-HSC, and MPP; assay: Example 8 kinetics of BM HSC number, cell cycle and reconstitution; assay type: in vivo, C57Bl/6 mice
Protocol: To monitor the kinetics of CASIN effects on cell number, proliferation, and cell cycle change of HSCs, four time points post-CASIN-administration are focused on in this part. The determination of the four time points depends on the PD analysis to reflect the kinetics of HSCs from relatively quiescent state through proliferative state back to the quiescent state. In this study, the following time points are used: 0, 24, 48, and 96 hours postdosing as an example. Again C57Bl/6 mice are used here. Three subpopulations of HSC/P are investigated and phenotypically defined by flow cytometry: (1) Long-term reconstituting Flk-2-HSC (LT-HSC) subset (Lin−/c-Kit+/Sca-1+/Thy1.1int/FLK2−) capable of extensive self-renewal; (2) Short-term reconstituting Flk-2int HSC(ST-HSCF) subset (Lin−/c-K1t+/Sca-1+/Thy1.1int/FLK2int), which self-renews for a limited interval; (3) Nonself-renewing Flk-2+ multipotent progenitor (MPPF) subset (Lin−/c-K1t+/Sca-1+/Thy1.1int/FLK2+).
Harvest of PB and BM: At 0, 24, 48, and 96 h post CASIN injection, the mice are sacrificed, and then the marrow is flushed from the femurs and tibias of C57Bl/6 mice and the blood cells are collected by cardiac incision.
Change of the frequency and total number of subpopulations of HSC/Ps in BM and PB: Both PB and BM cells are further prepared for flow cytometry analysis. Then, the frequencies of LT-HSC, ST-HSC, and MPP along the four time points are determined using the combinations of cell surface markers mentioned above phenotypically by flow cytometry. The absolute numbers of different subpopulations of HSC in BM and PB are calculated according to the total cellularity of BM and PB of the mice.
Cell cycle analysis: To characterize the cell cycle status of subpopulations of HSCs following treatment with CASIN, double-sorted cells are stained with Hoechst 33342 and Pyronin Y (H/PY), allowing simultaneous assessment of the fraction of cells with more than 2n DNA content (Hoechst 33342), as well as relative levels of total double-stranded RNA (PY). […]

T2 sequence (Q9QUI0 whole entry): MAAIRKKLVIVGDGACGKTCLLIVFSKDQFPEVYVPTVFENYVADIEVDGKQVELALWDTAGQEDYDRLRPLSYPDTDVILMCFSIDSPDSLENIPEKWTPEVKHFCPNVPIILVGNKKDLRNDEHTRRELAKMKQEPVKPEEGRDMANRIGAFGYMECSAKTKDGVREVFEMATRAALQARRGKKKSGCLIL

OCCNC1CCCc2c1[nH]c1ccc(-c3ccccc3)cc21 (stereo not drawn) [CASIN]
Rac1 activity [1]: no effects | RhoA activity [2]: no effects | percentages of adherent 32D cells to CH296 [3]: significantly reduced dose-dependently | F-actin reorganization capacity of N-RasMA93 cells [4]: significantly impaired | apoptosis or cell death of leukemia cells in vivo ([5]; in vivo): did not elicit significant apoptosis or cell death | mobilization of LICs to the peripheral blood ([5]; intravenous, by 20 min post injection): efficiently mobilized the LICs to the peripheral blood transiently | reconstitution frequency of BM LT-HSCs ([6]; 48 hours post injection, compared to non-treated mice): significantly decreases | cell cycle status of HSC/P subpopulations (H/PY staining) ([6]; after CASIN administration): decreased frequencies of cells in G0 phase | numbers and frequencies of LT-HSC, ST-HSC, and MPP population in BM ([6]; post-CASIN administration): increase dramatically up to 48 h post-CASIN administration
